Assay results as given in US9316633B2, “Methods for identifying inhibitors of solute transporters” (The Regents of the University of California, priority 2006, dated 2016).
One block for each molecule: values may come before it.

How the values were obtained:
UT-B [1] = molecular target: T1, UT-B (Homo sapiens, UniProt Q13336); test: Stopped-flow light scattering, urea permeability of human RBCs; assay type: cell-based; conditions: for inhibition of urea transport, inhibitor added only to urea-containing solution (sidedness): 0.1 μM ureainh-101, 0.2 μM ureainh-302, external exposure at time of mixing; for reversibility of inhibition after washing RBCs: 10 min pre-incubation, then wash
T1 construct: the indicator cells are red blood cells that endogenously express the UT-B urea transporter; endogenous in cells; host or cells: human red blood cells (whole venous blood, single donor)
T1 sequence (Q13336 1-389): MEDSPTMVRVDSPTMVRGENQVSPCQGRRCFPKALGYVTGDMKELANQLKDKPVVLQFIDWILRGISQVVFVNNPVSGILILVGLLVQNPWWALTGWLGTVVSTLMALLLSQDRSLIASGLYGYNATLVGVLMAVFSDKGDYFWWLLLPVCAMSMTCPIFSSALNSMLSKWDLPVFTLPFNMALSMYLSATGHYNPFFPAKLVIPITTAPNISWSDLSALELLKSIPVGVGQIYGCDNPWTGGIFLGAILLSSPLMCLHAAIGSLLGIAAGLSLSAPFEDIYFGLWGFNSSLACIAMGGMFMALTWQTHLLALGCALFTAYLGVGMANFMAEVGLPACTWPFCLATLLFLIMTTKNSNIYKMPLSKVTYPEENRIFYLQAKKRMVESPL
Procedure: RBC urea and water permeabilities were assayed by stopped-flow light scattering using a Hi-Tech Sf-51 instrument (Wiltshire, UK). […] After an initial osmotic shrinking phase, the kinetics of increasing cell volume caused by urea influx were measured as the time-course of 90° scattered light intensity at 530 nm, with increasing cell volume resulting in reduced scattered light intensity. As a positive control, 0.7 mM phloretin was added to the RBC suspension prior to stopped-flow experiments. Measurements of water permeability were carried out similarly, with sucrose (cell-impermeant) used instead of urea to establish a 250-mM osmotic gradient. As a positive control, HgCl2 (0.3 mM) was added to the RBC suspension prior to stopped-flow measurements. Osmotic water permeability coefficients (Pf) were computed from light scattering data as described (van Hoek et al., J. Biol. Chem. 267:18267-69 (1992)).
After repeating the 96-well plate RBC lysis assay to confirm compound activity (see Example 2), bona fide urea transport inhibition was determined by stopped-flow light scattering from the kinetics of urea influx (RBC swelling) in response to an inwardly directed urea gradient. Rapid mixing of an RBC suspension with a hyperosmolar solution containing excess 250 mM urea produced rapid cell shrinking due to osmotic water efflux, followed by cell swelling as urea (and water) influx occurred.
To determine EC50 values for urea transport inhibition directly, RBC urea transport was measured by stopped-flow light scattering using a non-saturating concentration of extracellular urea (to avoid possible competition effects). EC50 for inhibition of RBC urea transport was determined independently by comparing stopped-flow light scattering curves to a model of cell shrinking-swelling.
For stopped-flow experiments, a 100-mM gradient of urea (for human RBCs) or N-methylurea (for mouse RBCs) was used to minimize competition effects (apparent urea and N-methylurea affinities at 23° C. are approximately 200 and approximately 100 mM, respectively) (Mayrand et al., J. Gen. Physiol. 81:221-37 (1983)). N-methylurea, with greater than 2-fold slower RBC permeability than urea, was used in mouse studies to better resolve overlapping water and urea transport kinetics. Dose-response data were also collected for human RBCs using a high concentration of 1 M urea to distinguish between competitive vs. non-competitive inhibitor binding.
The two coupled differential equations describing water efflux and solute influx in response to externally added urea or methylurea were numerically integrated using the forward Euler method (Δt=0.01 s) to reproduce the biphasic changes in cell volume observed experimentally. Computations that were performed using the smaller time step (Δt=0.001 s) gave similar results, confirming the adequacy of the 0.01 s time step. Water flux, Jv (in cm^3/s), across erythrocyte membranes is represented by the following equation: Jv=−Pf·S·vw·[(Ie−Ic(i))+(Ue−Uc(i))]; solute flux, Js (in mol/s), is represented by the following equation: Ps·S·(Ue−Uc(i). Permeability coefficients (Pf and Ps) are expressed in units of cm/s, cell surface area (S) in cm^2, extracellular (e) and cellular (c) concentrations of impermeant (I) and urea/methylurea (U) solute in mol/cm^3, and vw is […]. Initial conditions were Ie=Ic(0)=2.9×10^−4 mol/cm^3, Ue=10^−4 mol/cm^3, and Uc(0)=0. For each time step, a new cell volume (normalized to the initial size; V(i+1)/V(0)) and a new cell permeant concentration (U(i+1)) were calculated from V(i+1)/V(0)=V(i)/V(0)−Δt·Pf·(S/V(0))·vw·[Ie(1−V(i)/V(0))+(Ue−Uc(i))] and Uc(i+1)=Uc(i)/V(0)−Δt·Us·(S/V(0))·vw·(Ue−Uc(i)). Normalized cell volume was assumed to be inversely proportional to scattered light intensity. The product of Pf and the surface area-to-volume ratio (S/V(0)) was determined to be 3.4×10^2 s^−1 and 8.5×10^2 s^−1 for human and mouse erythrocytes, respectively, from water permeability measurements. […]

urea transporter (UT) = conditions: 23° C., RBC urea transport; cited from earlier work
RBCs from wild-type mice = test: Osmotic water permeability by stopped-flow light scattering, RBCs from wild-type mice; assay type: cell-based, mouse
Procedure: (§1) RBC urea and water permeabilities were assayed by stopped-flow light scattering using a Hi-Tech Sf-51 instrument (Wiltshire, UK). For measurement of urea permeability, dilutions of whole blood (human or mouse; see Example 1) in PBS (hematocrit: approximately 0.5%) were incubated with test compounds for 5 min and then subjected to a 250-mM inwardly directed gradient of urea. After an initial osmotic shrinking phase, the kinetics of increasing cell volume caused by urea influx were measured as the time-course of 90° scattered light intensity at 530 nm, with increasing cell volume resulting in reduced scattered light intensity. As a positive control, 0.7 mM phloretin was added to the RBC suspension prior to stopped-flow experiments. Measurements of water permeability were carried out similarly, with sucrose (cell-impermeant) used instead of urea to establish a 250-mM osmotic gradient. As a positive control, HgCl2 (0.3 mM) was added to the RBC suspension prior to stopped-flow measurements. Osmotic water permeability coefficients (Pf) were computed from light scattering data as described (van Hoek et al., J. Biol. Chem. 267:18267-69 (1992)).
This example describes chemical knock-out of UT-B by UT-B inhibitors in RBCs and the effect on UT-B-facilitated water transport. […] Osmotic water permeability was measured by stopped-flow light scattering in RBCs from wild-type and AQP1-null mice as shown in FIG. 8A. […] AQP1-null RBCs had greater than 5-fold reduced Pf compared to wild-type RBCs.

[2] = molecular target: T2, UT-B-facilitated water transport (Mus musculus, UniProt Q8VHL0); test: Osmotic water permeability by stopped-flow light scattering, RBCs from AQP1-null mice; assay type: cell-based
T2 construct: endogenous in cells; host or cells: mouse red blood cells (AQP1-null and wild-type mice, CD1 background)
T2 sequence (Q8VHL0 1-384): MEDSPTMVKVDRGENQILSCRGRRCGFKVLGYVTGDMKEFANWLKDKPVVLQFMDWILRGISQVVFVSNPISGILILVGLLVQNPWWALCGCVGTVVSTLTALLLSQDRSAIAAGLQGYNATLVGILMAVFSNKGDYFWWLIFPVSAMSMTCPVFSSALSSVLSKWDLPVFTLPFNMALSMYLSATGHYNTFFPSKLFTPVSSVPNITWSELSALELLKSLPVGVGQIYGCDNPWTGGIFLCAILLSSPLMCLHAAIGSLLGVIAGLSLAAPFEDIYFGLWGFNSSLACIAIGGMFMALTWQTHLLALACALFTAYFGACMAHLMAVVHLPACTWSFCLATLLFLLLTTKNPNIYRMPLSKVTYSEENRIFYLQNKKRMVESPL
Procedure: as §1, with “Osmotic water permeability coefficients (Pf) were computed from light scattering data as described (van Hoek et al., J. Biol. Chem. 267:18267-69 (1992)).” left out
This example describes chemical knock-out of UT-B by UT-B inhibitors in RBCs and the effect on UT-B-facilitated water transport. […] Osmotic water permeability was measured by stopped-flow light scattering in RBCs from wild-type and AQP1-null mice as shown in FIG. 8A. […]

UT-B [3] = molecular target: T1, UT-B; test: RBC lysis assay, human RBCs loaded with acetamide; assay type: cell-based; conditions: UT-B inhibitory potency

SMILES: CC(N)=O [Acetamide, reference compound]
share of transport in RBCs that is UT-B-dependent (UT-B [1]; stopped-flow light scattering): greater than 95%

SMILES: CNC(N)=O [N-methylurea]
apparent affinity (urea transporter (UT)): approximately 100 mM

SMILES: NC(N)=O [urea]
apparent affinity (urea transporter (UT)): approximately 200 mM

SMILES: NC(=O)CSc1oc(-c2ccccc2)nc1S(=O)(=O)c1ccc(Br)cc1 [ureainh-101, 2-(4-(4-bromophenylsulfonyl)-2-phenyloxazol-5-ylthio)acetamide]
inhibition of urea transport, inhibitor added only to urea-containing solution (sidedness) (UT-B [1]): did not inhibit urea transport | reversibility of inhibition after washing RBCs (UT-B [1]): fully reversible inhibition | effect on water transport (RBCs from wild-type mice): little effect | effect on water permeability [2]: further inhibited

SMILES: Cc1ccc(Nc2nnc(-c3ccc(C(N)=O)cc3)c3ccccc23)cc1 [ureainh-302, 4-(4-(p-tolylamino)phthalazin-1-yl)benzamide]
EC50 (UT-B [3]; Table 5, phthalazinamines): 0.2 µM | inhibition of urea transport, inhibitor added only to urea-containing solution (sidedness) (UT-B [1]): sizable effect | inhibition at 0.4 µM (UT-B [1]; 0.1 μM ureainh-101, 0.4 μM ureainh-302, read-out: transport inhibition after 10 min pre-incubation): > 95% | reversibility of inhibition after washing RBCs (UT-B [1]): fully reversible inhibition | effect on water transport (RBCs from wild-type mice): little effect | effect on water permeability [2]: further inhibited

SMILES: CCn1c(NCc2c(O)ccc3ccccc23)nc2ccccc21 [ureainh-421, 1-((1-ethyl-1H-benzo[d]imidazol-2-ylamino)methyl)naphthalen-2-ol]
EC50 (UT-B [3]; Table 7, aminobenzimidazoles): 3 µM

SMILES: CCn1c(NC(C)c2cc(Cl)ccc2O)nc2ccccc21 (stereo not drawn) [ureainh-423, 4-chloro-2-(1-(1-ethyl-1H-benzo[d]imidazol-2-ylamino)ethyl)phenol]
EC50 (UT-B [3]; Table 7, aminobenzimidazoles): 5 µM

Results, then the molecule that gave them:

EC50 (UT-B [3]; Table 7, aminobenzimidazoles): 25 µM
SMILES: C=CCn1c(NCc2cc(OC)ccc2O)nc2ccccc21 [ureainh-419, 2-((1-allyl-1H-benzo[d]imidazol-2-ylamino)methyl)-4-methoxyphenol]

EC50 (UT-B [3]; Table 7, aminobenzimidazoles): 3 µM
SMILES: COc1ccc(O)c(CNc2nc3ccccc3n2C(C)C)c1 [ureainh-420, 2-((1-isopropyl-1H-benzo[d]imidazol-2-ylamino)methyl)-4-methoxyphenol]

EC50 (UT-B [3]; Table 7, aminobenzimidazoles): 11 µM
SMILES: CCn1c(NCc2cccc(OC)c2O)nc2ccccc21 [ureainh-422, 2-((1-ethyl-1H-benzo[d]imidazol-2-ylamino)methyl)-6-methoxyphenol]
